Among the data in patent US20110171171A1, “BRIDGED SECONDARY AMINES AND USE THEREOF AS IAP BIR DOMAIN BINDING COMPOUNDS” (Aegera Therapeutics, Inc., priority 2008, published 2011) are EC50 values, retold here.

Type in all cases: cell-based
The subject of test [1] is Colorectal carcinoma HCT116 cells. Description: HCT116 + ETR1 cell death assay (MTT, 72 hours). Particulars: with HGS ETR1 40 ng/ml. As for the experimental part:
Colorectal carcinoma HCT116 cells were cultured as monolayers in 96 well plates at a density of 2000 cells per well in McCoy's 5a medium (HyClone) supplemented with 2.2 g/L sodium bicarbonate (Gibco), 10% FBS (HyClone) and 1% penecillin/streptomycin (HyClone). 24 hours later, triplicate wells were treated with HGS ETR1 (40 ng/ml) in combination with compound. Cells were incubated in the presence of compound and HGS agonistic Trail receptor antibody, ETR1 (Mapatumamab, 40 ng/ml) for 72 hours. Metabolic viability of remaining cells was assessed by MTT (thiazolyl blue tetrazolium bromide, Sigma) assay.
(§1) EC50 values (50% cell survival in the presence of compound as compared to untreated controls) were calculated from survival curves using BioAssay software (CambridgeSoft, HCT116 and SKOV3 SAR) and GraphPad Prism (Graph Pad Software Inc., Synoviocyte SAR).

Test [2] has as its system Ovarian adenocarcinoma SKOV3 cells. Put plainly: SKOV3 cell death assay (MTT, 72 hours). To be noted: Homo sapiens, SK-OV-3, compound alone. How it is done: Ovarian adenocarcinoma SKOV3 cells were cultured as monolayers in McCoy's 5a medium (HyClone) supplemented with 2.2 g/L sodium bicarbonate (Gibco), 10% FBS (HyClone) and 1% penicillin/streptomycin (HyClone). Cells were seeded in 96 well plates at 5000 cells/well. After 24 hours in culture, cells were treated with compound. Cells were incubated in the presence of compound for 72 hours. Metabolic viability of remaining cells was assessed by MTT (thiazolyl blue tetrazolium bromide, Sigma) assay.
as §1

Test [3] has as its system Rheumatoid arthritis human fibroblast-like synoviocytes (HFLS-RA). Description: Synoviocytes + Fas antibody cell survival assay (Cell Titer-Glo). Particulars: with 300 ng/ml anti-human CD95 (Fas) antibody CH-11, 72 hours, read-out: EC50 synoviocyctes + FAS. As for the experimental part:
Rheumatoid arthritis human fibroblast-like synoviocytes (HFLS-RA, Cell Applications Inc.) were seeded in 96-well plates at 3000 cells per well in complete synoviocyte growth medium (Cell Applications Inc.) one day prior to treatment. Triplicate wells were treated for 72 hours compound in combination with 300 ng/ml anti-human CD95 (Fas) antibody (clone CH-11, Beckman Coulter/Immunotech). Cell survival was measured by Cell Titer-Glo Luminescent Assay (Promega).
as §1

In general, EC50 refers to the concentration needed to bring the measured effect to its halfway point.

As for `CN[C@@H](C)C(=O)N[C@H](C(=O)N1CCC[C@H]1CN(CCc1ccccc1)C(=O)CNC(=O)c1ccc(-c2ccc(C(=O)NCC(=O)N(CCc3ccccc3)C[C@@H]3CCCN3C(=O)[C@@H](NC(=O)[C@H](C)NC)C3CCCCC3)cc2)cc1)C1CCCCC1` [Compound 2], the EC50 in test [1], in test [2] and in test [3] was less than 100 nM throughout.

`CN[C@@H](C)C(=O)N[C@H](C(=O)N1CCC[C@H]1CN(CCc1ccc(F)cc1)C(=O)c1ccc(-c2ccc(C(=O)N(CCc3ccc(F)cc3)C[C@@H]3CCCN3C(=O)[C@@H](NC(=O)[C@H](C)NC)C3CCCCC3)cc2)cc1)C1CCCCC1` [Compound 6]: the EC50 in test [1], in test [2] and in test [3] was less than 100 nM each time.

Take `CN[C@@H](C)C(=O)N[C@H](C(=O)N1CCC[C@H]1CN(CCc1ccc(F)cc1)C(=O)CNC(=O)c1ccc(-c2ccc(C(=O)NCC(=O)N(CCc3ccc(F)cc3)C[C@@H]3CCCN3C(=O)[C@@H](NC(=O)[C@H](C)NC)C3CCCCC3)cc2)cc1)C1CCCCC1` [Compound 8]: the EC50 in test [1], in test [2] and in test [3] was less than 100 nM each time.

`CN[C@@H](C)C(=O)N[C@H](C(=O)N1CCC[C@H]1CN(CCc1ccc(F)cc1)C(=O)c1ccc2cc(C(=O)N(CCc3ccc(F)cc3)C[C@@H]3CCCN3C(=O)[C@@H](NC(=O)[C@H](C)NC)C3CCCCC3)ccc2c1)C1CCCCC1` [Compound 11]: the EC50 in test [1] and in test [3] was less than 100 nM in each case.

As to `CN[C@@H](C)C(=O)N[C@H](C(=O)N1CCC[C@H]1CN(CCc1ccccc1)C(=O)CNC(=O)c1ccc(-c2ccc(C(=O)NCC(=O)N(CCc3ccccc3)C[C@@H]3CCCN3C(=O)[C@@H](NC(=O)[C@H](C)NC)C3CCCC3)cc2)cc1)C1CCCC1` [Compound 17], the EC50 in test [1], in test [2] and in test [3] was less than 100 nM in each case.

For `CN[C@@H](C)C(=O)N[C@H](C(=O)N1CCC[C@H]1CN(CCc1ccccc1)C(=O)c1ccc(-c2ccc(C(=O)N(CCc3ccccc3)C[C@@H]3CCCN3C(=O)[C@@H](NC(=O)[C@H](C)NC)C3CCCCC3)cc2)cc1)C1CCCCC1` [Compound 18], the EC50 in test [1] and in test [3] was less than 100 nM in each case.

As to `CN[C@@H](C)C(=O)N[C@H](C(=O)N1CCC[C@H]1CN(CCc1ccccc1)C(=O)c1ccc2cc(C(=O)N(CCc3ccccc3)C[C@@H]3CCCN3C(=O)[C@@H](NC(=O)[C@H](C)NC)C3CCC3)ccc2c1)C1CCC1` [Compound 19], the EC50 in test [1] and in test [3] was less than 100 nM throughout.

In the case of `CN[C@@H](C)C(=O)N[C@H](C(=O)N1CCC[C@H]1CN(CCc1ccccc1)C(=O)c1ccc2cc(C(=O)N(CCc3ccccc3)C[C@@H]3CCCN3C(=O)[C@@H](NC(=O)[C@H](C)NC)C3CC3)ccc2c1)C1CC1` [Compound 20], the EC50 in test [1] was less than 100 nM; in test [3] it was greater than 100 nM.

Regarding `CN[C@@H](C)C(=O)N[C@H](C(=O)N1CCC[C@H]1CN(CCc1ccccc1)C(=O)c1ccc(-c2ccc(C(=O)N(CCc3ccccc3)C[C@@H]3CCCN3C(=O)[C@@H](NC(=O)[C@H](C)NC)C3CCC3)cc2)cc1)C1CCC1` [Compound 21], the EC50 in test [1] and in test [3] was less than 100 nM in each case.

For the compound `CN[C@@H](C)C(=O)N[C@H](C(=O)N1CCC[C@H]1CN(CCc1ccccc1)C(=O)c1ccc(-c2ccc(C(=O)N(CCc3ccccc3)C[C@@H]3CCCN3C(=O)[C@@H](NC(=O)[C@H](C)NC)C3CC3)cc2)cc1)C1CC1` [Compound 22], the EC50 in test [1] and in test [3] was less than 100 nM each time.

`CN[C@@H](C)C(=O)N[C@H](C(=O)N1CCC[C@H]1CN(CCc1ccccc1)C(=O)c1ccc(-c2ccc(C(=O)N(CCc3ccccc3)C[C@@H]3CCCN3C(=O)[C@@H](NC(=O)[C@H](C)NC)C3CCCC3)cc2)cc1)C1CCCC1` [Compound 23]: the EC50 in test [1] and in test [3] was less than 100 nM in each case.
